Experiment: xn = mol fraction of the nth substance listed

CC(C)C#N + Cc1ccccc1
viscosity [mPa·s], 101 kPa
Conditions	x2 = 0.1025	x2 = 0.2009	x2 = 0.2987	x2 = 0.4001	x2 = 0.4983	x2 = 0.6008	x2 = 0.6993	x2 = 0.801	x2 = 0.8983
303.15 K	0.463	0.465	0.468	0.474	0.481	0.49	0.499	0.509	0.517
308.15 K	0.434	0.437	0.439	0.445	0.45	0.46	0.468	0.478	0.486

OCCCl + Cc1ccccc1N
viscosity [mPa·s], 100 kPa
Conditions	x2 = 0.1141	x2 = 0.2148	x2 = 0.3201	x2 = 0.4123	x2 = 0.5121	x2 = 0.6225	x2 = 0.7112	x2 = 0.8184	x2 = 0.9017
303.15 K	2.67	2.744	2.82	2.884	2.953	3.026	3.084	3.151	3.202
308.15 K	2.312	2.378	2.445	2.502	2.562	2.626	2.676	2.734	2.777
313.15 K	1.963	2.031	2.099	2.157	2.219	2.285	2.337	2.396	2.44
318.15 K	1.645	1.711	1.777	1.834	1.893	1.958	2.008	2.067	2.108

CN1CCC[C@H]1c1cccnc1 + ClC(Cl)C(Cl)Cl
viscosity [mPa·s], 101.33 kPa
Conditions	x1 = 0.1547	x1 = 0.2569	x1 = 0.3706	x1 = 0.5146	x1 = 0.5995	x1 = 0.6384	x1 = 0.6803	x1 = 0.7501	x1 = 0.868
298.15 K	2.625	3.353	4.121	4.912	5.253	5.353	5.203	5.031	4.545
323.15 K	1.541	1.905	2.184	2.425	2.53	2.632	2.568	2.497	2.342

CN1CCC[C@H]1c1cccnc1 + ClC(Cl)Cl
viscosity [mPa·s], 101.33 kPa
Conditions	298.15 K	308.15 K	323.15 K
x1 = 0.1107	0.8162	0.7343	0.6076
x1 = 0.1213	0.8741	0.7473	0.6289
x1 = 0.2022	1.135	0.9654	0.8066
x1 = 0.219	1.197	0.9796	0.8071
x1 = 0.2456	1.275	1.082	0.8894
x1 = 0.2972	1.463	1.206	0.958
x1 = 0.3738	1.8	1.473	1.138
x1 = 0.4026	1.921	1.588	1.198
x1 = 0.4882	2.296	1.818	1.361
x1 = 0.5032	2.395	1.9	1.402
x1 = 0.6129	2.846	2.267	1.651
x1 = 0.623	2.964	2.301	1.663
x1 = 0.6823	3.103	2.409	1.756
x1 = 0.6974	3.196	2.471	1.768
x1 = 0.8059	3.563	2.756	1.912
x1 = 0.8931	3.704	2.959	2
x1 = 0.8962	3.741	2.974	2.002

CC(C)C#N + Clc1ccccc1
viscosity [mPa·s], 101 kPa
Conditions	x2 = 0.1028	x2 = 0.2026	x2 = 0.3007	x2 = 0.4004	x2 = 0.5004	x2 = 0.6004	x2 = 0.6996	x2 = 0.7998	x2 = 0.8999
303.15 K	0.487	0.513	0.537	0.562	0.585	0.61	0.636	0.663	0.689
308.15 K	0.456	0.48	0.503	0.525	0.545	0.569	0.592	0.616	0.643

CC(C)C#N + Clc1ccccc1Cl
viscosity [mPa·s], 101 kPa
Conditions	x2 = 0.1007	x2 = 0.2025	x2 = 0.2999	x2 = 0.4004	x2 = 0.4997	x2 = 0.599	x2 = 0.6994	x2 = 0.7997	x2 = 0.8989
303.15 K	0.526	0.594	0.659	0.73	0.793	0.874	0.947	1.03	1.118
308.15 K	0.489	0.551	0.608	0.667	0.732	0.798	0.87	0.945	1.02
